Laboratory results from patent publication US20240216342A1, “BLOOD CARNITINE-INCREASING AGENT” (KOWA COMPANY, LTD., priority 2021, published 2024).

Assays:
Assay type in all cases: in vivo, human
[1] = Blood free carnitine in a fasting state, compound A given orally to dyslipidemia patients for 4 weeks (Example 1); details: for Ratio of change in free carnitine after administration for 4 weeks with respect to value before administration (at 0 weeks): fasting state, oral
Method: A study was conducted on an action on blood carnitine in oral administration of the compound A to a dyslipidemia patient at 0.2 to 0.8 mg a day for 4 weeks. For the administration of the compound A, an IR preparation (0.2 mg/day, twice a day), 0.4 mg of a CR preparation (once a day) and 0.8 mg of a CR preparation (once a day) were used, and the administration was performed before or after a meal. Table 1 and FIG. 1 show a ratio of change in concentration of free carnitine in blood in a fasting state in administration of the compound A to the dyslipidemia patient for 4 weeks with respect to the value before administration (at 0 weeks) in Example 1.

[2] = Blood free carnitine after meal (high-fat food) versus before meal, compound A given to dyslipidemia patients for 4 weeks (Example 1)
Method: A study was conducted on an action on blood carnitine in oral administration of the compound A to a dyslipidemia patient at 0.2 to 0.8 mg a day for 4 weeks. For the administration of the compound A, an IR preparation (0.2 mg/day, twice a day), 0.4 mg of a CR preparation (once a day) and 0.8 mg of a CR preparation (once a day) were used, and the administration was performed before or after a meal. Table 2 and FIG. 2 show a process of an amount of change in free carnitine in blood after meal (after intake of high-fat food) with respect to a value before meal in administration of the compound A to the dyslipidemia patient for 4 weeks in Example 1.

[3] = Blood free carnitine in a fasting state, compound A given orally to NAFLD patients for 48 weeks versus placebo (Example 2); details: IR 0.4 mg/day
Method: A study was conducted on an action on blood carnitine in oral administration of the compound A to a non-alcoholic fatty liver disease (NAFLD) patient at 0.4 mg a day for 48 weeks. For the administration of the compound A, an IR preparation (0.4 mg/day, twice a day) was used, and the administration was performed in a fasting state. A comparison was made with placebo administration. Table 3 and FIG. 3 show a process of a ratio of change in concentration of free carnitine in blood in a fasting state in administration of the compound A (IR 0.4 mg/day) to the NAFLD patient for 48 weeks with respect to the value before administration (at 0 weeks) in Example 2.

CC[C@@H](Oc1cccc(CN(CCCOc2ccc(OC)cc2)c2nc3ccccc3o2)c1)C(=O)O [Compound A, (R)-2-[3-[[N-(benzoxazol-2-yl)-N-3-(4-methoxyphenoxy)propyl]aminomethyl]phenoxy]butyric acid]
Effect on concentration of free carnitine in blood in a fasting state (in words) ([1]; 0.2 to 0.8 mg a day): increased the concentration of free carnitine in blood in a dose-dependent manner
Ratio of change in free carnitine after administration for 4 weeks with respect to value before administration (at 0 weeks) ([1]; CR preparation 0.4 mg/day): 19.5
Ratio of change in free carnitine after administration for 4 weeks with respect to value before administration (at 0 weeks) ([1]; CR preparation 0.8 mg/day): 23.71
Ratio of change in free carnitine after administration for 4 weeks with respect to value before administration (at 0 weeks) ([1]; IR preparation 0.2 mg/day): 11.82
Effect on concentration of free carnitine in blood after meal compared to before meal (in words) ([2]; 0.2 to 0.8 mg a day, 4 weeks): increased the concentration of free carnitine in blood after meal as compared to the concentration before meal
Amount of change in free carnitine in blood after meal with respect to value before meal, average ([2]; CR 0.4 mg/day (QD) for 4 weeks, 1 h after high-fat meal): 2.78 µmol/L
Amount of change in free carnitine in blood after meal with respect to value before meal, average ([2]; CR 0.4 mg/day (QD) for 4 weeks, 2.5 h after high-fat meal): 2.65 µmol/L
Amount of change in free carnitine in blood after meal with respect to value before meal, average ([2]; CR 0.4 mg/day (QD) for 4 weeks, 4.5 h after high-fat meal): 2.25 µmol/L
Amount of change in free carnitine in blood after meal with respect to value before meal, average ([2]; CR 0.8 mg/day (QD) for 4 weeks, 1 h after high-fat meal): 3.11 µmol/L
Amount of change in free carnitine in blood after meal with respect to value before meal, average ([2]; CR 0.8 mg/day (QD) for 4 weeks, 2.5 h after high-fat meal): 3.26 µmol/L
Amount of change in free carnitine in blood after meal with respect to value before meal, average ([2]; CR 0.8 mg/day (QD) for 4 weeks, 4.5 h after high-fat meal): 2.92 µmol/L
Amount of change in free carnitine in blood after meal with respect to value before meal, average ([2]; IR 0.2 mg/day (BID) for 4 weeks, 1 h after high-fat meal): 2.72 µmol/L
Amount of change in free carnitine in blood after meal with respect to value before meal, average ([2]; IR 0.2 mg/day (BID) for 4 weeks, 2.5 h after high-fat meal): 2.19 µmol/L
Amount of change in free carnitine in blood after meal with respect to value before meal, average ([2]; IR 0.2 mg/day (BID) for 4 weeks, 4.5 h after high-fat meal): 1.79 µmol/L
Time of administration at which the free carnitine increasing action reached the maximum value [3]: 12 weeks
Ratio of change in concentration of free carnitine in blood in a fasting state with respect to value before administration (0 weeks), average ([3]; 4 weeks): 20.0
Ratio of change in concentration of free carnitine in blood in a fasting state with respect to value before administration (0 weeks), average ([3]; 12 weeks): 24.7
Ratio of change in concentration of free carnitine in blood in a fasting state with respect to value before administration (0 weeks), average ([3]; 24 weeks): 24.5
Effect on concentration of free carnitine in blood in a fasting state compared to placebo (in words) ([3]; 48 weeks): increased the concentration of free carnitine in blood in a fasting state as compared to placebo administration
Ratio of change in concentration of free carnitine in blood in a fasting state with respect to value before administration (0 weeks), average ([3]; 48 weeks): 20.9
